Laboratory results: paper PMC11862924, “Phenylpyrazoles as Inhibitors of the m^6A RNA-Binding Protein YTHDF2” (JACS Au, 2025)
Entries after “also recorded” stand apart in the source; their conditions may differ.

Key:
[1] = biological target: T1, YTHDF2 (residues 383–553) (Homo sapiens, UniProt Q9Y5A9); assay: Fluorescence polarization (FP) assay, YTHDF2–m6A RNA interaction; assay type: binding; conditions: for inhibition at 100 µM / inhibition at 100 μM in the FP assay: 100 μM compound, YTHDF2 (residues 383–553, 20 nM), FAM-labeled m6A RNA probe 5 nM, average ± SD; for inhibitory IC50 in FP (in words): YTHDF2–m6A RNA interaction, Figure S2
T1 construct: A YTHDF2 YTH domain construct (residues 383–553) was subcloned to a pOPIN plasmid; made in house; host or cells: Escherichia coli BL21(DE3)
T1 sequence (Q9Y5A9 383-553): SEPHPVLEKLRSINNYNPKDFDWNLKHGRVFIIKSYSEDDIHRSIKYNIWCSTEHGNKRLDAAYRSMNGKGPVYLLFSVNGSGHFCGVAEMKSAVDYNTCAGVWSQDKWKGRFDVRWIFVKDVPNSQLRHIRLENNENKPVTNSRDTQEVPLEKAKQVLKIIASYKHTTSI
How it was run: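 Read-out is fluorescence polarization (485 nm excitation, 535 nm emission) after 30 min at 4 °C. Buffer: 20 mM HEPES/KOH pH 7.5, 50 mM NaCl, 0.005% Tween 20, 1 mM GSH (DTT); YTHDF2 at 20 nM was exposed to compound first, then FAM-m6A RNA probe added at 5 nM.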

YTHDF2 = biological target: T2, YTHDF2 (Homo sapiens, UniProt Q9Y5A9); assay: Electrophoretic mobility shift assay (EMSA); assay type: binding; conditions: for inhibition of the YTHDF2–m6A RNA interaction in EMSA at 100 μM (in words): 100 μM compound, 250 nM YTHDF2, FAM-labeled m6A RNA; for concentration-dependent inhibition of YTHDF2–m6A RNA complex formation in EMSA (in words): 3.1–100 μM compound, 250 nM YTHDF2, 20 nM FAM-labelled m6A RNA
T2 construct: A YTHDF2 YTH domain construct (residues 383–553) was subcloned to a pOPIN plasmid; made in house; host or cells: Escherichia coli BL21(DE3)
T2 sequence (Q9Y5A9 383-553): T1 sequence (Q9Y5A9 383-553)
Description: Compounds with different concentrations (3.1–100 μM) were incubated with 250 nM YTH-domain and 20 nM FAM-17mer-RNA in a buffer containing 20 mM HEPES, pH 8.2, 50 mM NaCl, 0.05% Triton X-100, and 5% v/v glycerol for 20 min at 4 °C. […] Gel imaging was performed in ChemiDoc MP (Bio-Rad), and Cy2/Alexa488 fluorescence was detected with a 1-min exposure time. Quantification of the gel image was performed by ImageJ.

YTHDF1 = biological target: T3, YTHDF1 (Homo sapiens, UniProt Q9BYJ9); assay: EMSA with YTHDF1; assay type: binding; conditions: m6A RNA 20 nM
T3 construct: Plasmids of the YTH domain of YTHDF1 (residues 375–552); made in house; host or cells: Escherichia coli BL21(DE3); plasmid from the Zhou lab (Boston College)
T3 sequence (Q9BYJ9 375-552): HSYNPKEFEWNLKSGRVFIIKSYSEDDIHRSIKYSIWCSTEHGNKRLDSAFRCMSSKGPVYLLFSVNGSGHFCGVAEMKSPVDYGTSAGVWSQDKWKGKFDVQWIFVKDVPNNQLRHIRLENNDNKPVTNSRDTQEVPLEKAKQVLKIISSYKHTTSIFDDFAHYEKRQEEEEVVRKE
Description: (§1) Compounds with different concentrations (3.1–100 μM) were incubated with 250 nM YTH-domain and 20 nM FAM-17mer-RNA in a buffer containing 20 mM HEPES, pH 8.2, 50 mM NaCl, 0.05% Triton X-100, and 5% v/v glycerol for 20 min at 4 °C. The samples were subjected to 12% native polyacrylamide gel and run at 120 V for 90 min at 4 °C using 0.5× TBE buffer. Gel imaging was performed in ChemiDoc MP (Bio-Rad), and Cy2/Alexa488 fluorescence was detected with a 1-min exposure time. Quantification of the gel image was performed by ImageJ.
Figure S12. The EMSA of YTHDF1 binding to the m6A RNA substrate. (A) The YTHDF1–RNA
complex formation in EMSA using m6A RNA (20 nM) and different concentrations of YTHDF1 . (B)
consistent results with that of FP.
(§2) (1 picture or pasted object on this page, not shown here)

YTHDC2 = biological target: T4, YTHDC2 (Homo sapiens, UniProt Q9H6S0); assay: EMSA with YTHDC2; assay type: binding; conditions: m6A RNA 20 nM, 10 µM YTHDC2
T4 construct: YTHDC2 (residues 1285–1424); made in house; host or cells: Escherichia coli BL21(DE3); plasmid from the Zhou lab (Boston College)
T4 sequence (Q9H6S0 1285-1424): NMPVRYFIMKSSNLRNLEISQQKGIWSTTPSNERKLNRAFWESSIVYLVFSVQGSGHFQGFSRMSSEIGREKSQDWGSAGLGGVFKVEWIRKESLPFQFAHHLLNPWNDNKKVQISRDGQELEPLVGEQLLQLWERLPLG
Description: as §1
Figure S15. EMSA using m6A RNA and YTHDC2 protein of varied concentrations as indicated.
(A) 20 nM of m6A RNA was used and 10 µM of YTHDC2 was chosen for EMSA. (B) CK-61, CK-
as §2

K562 and JAR cells = assay: Dot blot assay of cellular RNA m6A methylation level; assay type: cell-based, human; conditions: different concentrations, highest 25 μM
Description: JAR and K562 cells were seeded in six-well plates (1.0 × 10^6 cells/well) and incubated overnight. The cells were scraped off directly and then washed with PBS. Total RNA was then extracted with the Aurum Total RNA Mini Kit. The RNA concentration was determined by NanoDrop 2000c (Thermo) and then heated for 5 min at 95 °C. Primary antibody Rb pAb to N^6-methyladenosine (m^6A) (Abcam, ab286164, 1:1000) and secondary antibody HRP-conjugated AffiniPure Goat Anti-Rabbit IgG(H+L) (SA00001–2, 1:8000) were used. Chemiluminescent detection was performed using a ChemiDoc MP (Bio-Rad).

[2] = MTT cytotoxicity assay, HCT116; assay type: cell-based; conditions: human, HCT116 cells, triplicates, read-out: Cytotoxicity against cancer cells (IC50), HCT116
Description: JAR, K562, and HCT116 cells were seeded in 96-well plates (3500 cells/well) and incubated for 8 h. The medium with different concentrations of compounds (100, 33.3, 11.1, 3.7, 1.2, and 0.4 μM) was added to the 96-well plates. Data were normalized to the medium with 0.1% DMSO. After incubation for 72 h, MTT solution (5 mg/mL, 20 μL) was added per well in a dark environment and incubated for 4 h. After the medium was discarded, DMSO (150 μL) was added per well, and the absorbance was measured at 492 nm by a plate reader (TECAN Spark).

JAR = assay: CCK-8 proliferation assay, JAR; assay type: cell-based; conditions: Homo sapiens; CCK-8 kit assay, triplicates, 72 h; read-out: Anti-proliferation activity against cancer cells (IC50), JAR
Description: The JAR, K562, HCT116, and MOLM13 cells were seeded in 96-well plates (3000 cells/well). After being cultured overnight, compounds were added together with the DMSO treatment (0.1%) as a control. After 72 h, CCK-8 solution (Vazyme, A311) was added, and the cells were incubated at 37 °C for 4 h. The absorbance was measured at 450 nm using a plate reader (TECAN Spark).

| inhibition at 100 µM [1] | inhibition at 100 μM in the FP assay [1] | inhibitory IC50 in FP (in words) [1] | concentration-dependent inhibition of YTHDF2–m6A RNA complex formation in EMSA (in words) (YTHDF2) | inhibition of m6A RNA binding to YTHDF1 in EMSA (in words) (YTHDF1) | Structure (SMILES) | inhibition of the YTHDF2–m6A RNA interaction in EMSA at 100 μM (in words) (YTHDF2) | inhibition of m6A RNA binding to YTHDC2 in EMSA (in words) (YTHDC2) | effect on global m6A RNA abundance (dot blot, in words) (K562 and JAR cells) | IC50 at 72 h [2] | IC50 (JAR) |
| --- | --- | --- | --- | --- | --- | --- | --- | --- | --- | --- |
| > 70% | 81.4 ± 10.7% | low double-digit micromolar | potent inhibition | minimal inhibition | O=C(O)c1ccc(-n2cc(C(=O)c3cc(Cl)cc(Cl)c3O)cn2)cc1 [CK-61] | potent inhibition; also recorded: potently inhibited | did not show detectable inhibitory activity; also recorded: no activity | slight increase | > 50 µM | > 50 µM |
| – | – | – | – | did not show detectable inhibition | O=C(O)c1ccc(-n2cc(C(=O)c3c(O)ccc4ccccc34)cn2)cc1 [CK-75] | – | did not show detectable inhibitory activity; also recorded: did not show detectable inhibition | did not significantly impact | 33.3 µM | – |
| > 70% | 70.3 ± 5.1% | low double-digit micromolar | potent inhibition | did not show detectable inhibition | Cc1cc(O)c(C(=O)c2cnn(-c3ccc(C(=O)O)cc3)c2)cc1Cl [CK-79] | potent inhibition; also recorded: potently inhibited | did not show detectable inhibitory activity; also recorded: did not show detectable inhibition | did not significantly impact | 33.6 ± 14.7 µM | 32.1 ± 6.3 µM |
